Experimental data as given in ChEMBL document CHEMBL3425436, “Assessing the oral bioavailability of difluorosialic acid prodrugs, potent viral neuraminidase inhibitors, using a snapshot PK screening assay” (Bioorg Med Chem Lett, 2015).

Assays:
[1] = test system: Mus musculus; assay: Total plasma concentration in CD1 mouse assessed as (2R,3R,4R,5R,6R)-5-acetamido-4-amino-2,3-difluoro-6-((1R,2R)-1,2,3-trihydroxypropyl)tetrahydro-2H-pyran-2-carboxylic acid at 30 mg/kg, po measured at 60 mins by reversed-phase UPLC/MS analysis; format: ADME, organism-based; set-up: dose 30 mg/kg, route oral; details: in vivo, 1 h
[2] = test system: Mus musculus; assay: Total plasma concentration in CD1 mouse assessed as (2R,3R,4R,5R,6R)-5-acetamido-4-amino-2,3-difluoro-6-((1R,2R)-1,2,3-trihydroxypropyl)tetrahydro-2H-pyran-2-carboxylic acid at 30 mg/kg, po measured at 20 mins by reversed-phase UPLC/MS analysis; format: ADME, organism-based; set-up: dose 30 mg/kg, route oral; details: in vivo
[3] = test system: Mus musculus; assay: Oral bioavailability in CD1 mouse assessed as (2R,3R,4R,5R,6R)-5-acetamido-4-amino-2,3-difluoro-6-((1R,2R)-1,2,3-trihydroxypropyl)tetrahydro-2H-pyran-2-carboxylic acid at 30 mg/kg; format: ADME, organism-based; details: in vivo
[4] = Stability in simulated gastric fluid at 10 uM at pH 1 measured at 15 mins; format: ADME; details: read-out: Stability
[5] = Stability in simulated gastric fluid at 10 uM at pH 4 measured at 60 mins; format: ADME; details: read-out: Stability
[6] = Stability in simulated gastric fluid at 10 uM at pH 1 measured at 60 mins; format: ADME; details: read-out: Stability
[7] = Stability in simulated gastric fluid at 10 uM at pH 4 measured at 15 mins; format: ADME; details: read-out: Stability
[8] = Metabolic stability in mouse plasma at 10 uM measured at 15 mins; format: ADME, cell-free; details: read-out: Stability
[9] = test system: Mus musculus; assay: AUC in CD1 mouse assessed as (2R,3R,4R,5R,6R)-5-acetamido-4-amino-2,3-difluoro-6-((1R,2R)-1,2,3-trihydroxypropyl)tetrahydro-2H-pyran-2-carboxylic acid at 30 mg/kg, po; format: ADME, organism-based, Plasma; set-up: dose 30 mg/kg, route oral; details: in vivo
[10] = Metabolic stability in mouse plasma at 10 uM measured at 60 mins; format: ADME, cell-free; details: read-out: Stability
[11] = test system: Mus musculus; assay: Tmax in CD1 mouse assessed as (2R,3R,4R,5R,6R)-5-acetamido-4-amino-2,3-difluoro-6-((1R,2R)-1,2,3-trihydroxypropyl)tetrahydro-2H-pyran-2-carboxylic acid at 30 mg/kg, po; format: ADME, organism-based; set-up: dose 30 mg/kg, route oral; details: in vivo
[12] = test system: Mus musculus; assay: Cmax in CD1 mouse assessed as (2R,3R,4R,5R,6R)-5-acetamido-4-amino-2,3-difluoro-6-((1R,2R)-1,2,3-trihydroxypropyl)tetrahydro-2H-pyran-2-carboxylic acid at 30 mg/kg, po; format: ADME, organism-based; set-up: dose 30 mg/kg, route oral; details: in vivo

Q: For `COC(=O)[C@]1(F)O[C@@H]([C@H](O)[C@H]2COC3(CCCCC3)O2)[C@H](NC(C)=O)[C@@H](N)[C@H]1F`, which concentration [1] is on record?
A: 390 nM

Q: What does the source list for `CC(=O)N[C@@H]1[C@@H](N)[C@@H](F)[C@](F)(C(=O)NC2CCCCC2)O[C@H]1[C@H](O)[C@H](O)CO`?
A: concentration [2]: 1140 nM; concentration [1]: 2150 nM

Q: With `CC(=O)N[C@@H]1[C@@H](N)[C@@H](F)[C@](F)(C(=O)NCc2ccccc2F)O[C@H]1[C@H](O)[C@H](O)CO` as the compound, how does the concentration [2] read?
A: 660 nM

Q: What about the concentration [1] of the same compound?
A: 840 nM

Q: For `CC(=O)N[C@@H]1[C@@H](N)[C@@H](F)[C@](F)(C(=O)NCc2cccc(F)c2)O[C@H]1[C@H](O)[C@H](O)CO`, which concentration [2] is on record?
A: 310 nM

Q: What about the concentration [1] of the same compound?
A: 810 nM

Q: For `COC(=O)[C@]1(F)O[C@@H]([C@H](O)[C@H](O)CO)[C@H](NC(C)=O)[C@@H](N)[C@H]1F`, which concentration [2] is on record?
A: 6440 nM

Q: What about the F [3] of the same compound?
A: 2.2%

Q: And the remaining at 0.25 h, 10 µM [4]?
A: 100%

Q: And the remaining at 1 h, 10 µM [5]?
A: 99%

Q: What about the remaining at 1 h, 10 µM [6] of the same compound?
A: 75%

Q: What about the remaining at 0.25 h, 10 µM [7] of the same compound?
A: 100%

Q: And the concentration [1]?
A: 5340 nM

Q: And the remaining at 0.25 h, 10 µM [8]?
A: 90%

Q: What about the AUC [9] of the same compound?
A: 219 µmol·min

Q: And the remaining at 1 h, 10 µM [10]?
A: 6%

Q: What about the Tmax [11] of the same compound?
A: 1 h

Q: And the Cmax [12]?
A: 1600 nM

Q: Which results are given for `CCOC(=O)[C@]1(F)O[C@@H]([C@H](O)[C@H](O)CO)[C@H](NC(C)=O)[C@@H](N)[C@H]1F`?
A: concentration [2]: 2070 nM; concentration [1]: 3580 nM

Q: For `CC(=O)N[C@@H]1[C@@H](N)[C@@H](F)[C@](F)(C(=O)OC(C)C)O[C@H]1[C@H](O)[C@H](O)CO`, which concentration [2] is on record?
A: 12200 nM

Q: What about the F [3] of the same compound?
A: 0.9%

Q: And the remaining at 0.25 h, 10 µM [4]?
A: 100%

Q: And the remaining at 1 h, 10 µM [5]?
A: 99%

Q: What about the remaining at 1 h, 10 µM [6] of the same compound?
A: 98%

Q: And the remaining at 0.25 h, 10 µM [7]?
A: 99%

Q: What about the concentration [1] of the same compound?
A: 13000 nM

Q: And the remaining at 0.25 h, 10 µM [8]?
A: 100%

Q: And the AUC [9]?
A: 78 µmol·min

Q: What about the remaining at 1 h, 10 µM [10] of the same compound?
A: 87%

Q: And the Tmax [11]?
A: 1 h

Q: What about the Cmax [12] of the same compound?
A: 500 nM

Q: For `CC(=O)N[C@@H]1[C@@H](N)[C@@H](F)[C@](F)(C(=O)OC2CCCC2)O[C@H]1[C@H](O)[C@H](O)CO`, which concentration [2] is on record?
A: 1030 nM

Q: What about the concentration [1] of the same compound?
A: 2880 nM

Q: Which results are given for `CCCCCOC(=O)[C@]1(F)O[C@@H]([C@H](O)[C@H](O)CO)[C@H](NC(C)=O)[C@@H](N)[C@H]1F`?
A: concentration [2]: 2740 nM; F [3]: 5.5%; remaining at 0.25 h, 10 µM [4]: 99%; remaining at 1 h, 10 µM [5]: 100%; remaining at 1 h, 10 µM [6]: 96%; remaining at 0.25 h, 10 µM [7]: 100%; concentration [1]: 3500 nM; remaining at 0.25 h, 10 µM [8]: 81%; AUC [9]: 462 µmol·min; remaining at 1 h, 10 µM [10]: 24%; Tmax [11]: 1 h; Cmax [12]: 4700 nM

Q: For `CC(=O)N[C@@H]1[C@@H](N)[C@@H](F)[C@](F)(C(=O)OCC2CCCCC2)O[C@H]1[C@H](O)[C@H](O)CO`, which concentration [2] is on record?
A: 3410 nM

Q: And the F [3]?
A: 9.3%

Q: What about the remaining at 0.25 h, 10 µM [4] of the same compound?
A: 100%

Q: And the remaining at 1 h, 10 µM [5]?
A: 100%

Q: What about the remaining at 1 h, 10 µM [6] of the same compound?
A: 100%

Q: What about the remaining at 0.25 h, 10 µM [7] of the same compound?
A: 100%

Q: What about the concentration [1] of the same compound?
A: 4670 nM

Q: And the remaining at 0.25 h, 10 µM [8]?
A: 98%

Q: And the AUC [9]?
A: 736 µmol·min

Q: What about the remaining at 1 h, 10 µM [10] of the same compound?
A: 64%

Q: And the Tmax [11]?
A: 1 h

Q: And the Cmax [12]?
A: 1200 nM

Q: Which results are given for `CCCCCCCCOC(=O)[C@]1(F)O[C@@H]([C@H](O)[C@H](O)CO)[C@H](NC(C)=O)[C@@H](N)[C@H]1F`?
A: concentration [2]: 3230 nM; concentration [1]: 7110 nM

Q: Which results are given for `CCCCCCCCCCCCOC(=O)[C@]1(F)O[C@@H]([C@H](O)[C@H](O)CO)[C@H](NC(C)=O)[C@@H](N)[C@H]1F`?
A: concentration [2]: 440 nM; concentration [1]: 2920 nM

Q: For `CC(=O)N[C@@H]1[C@@H](N)[C@@H](F)[C@](F)(C(=O)OCCCCC(F)(F)F)O[C@H]1[C@H](O)[C@H](O)CO`, which concentration [2] is on record?
A: 2540 nM

Q: What about the concentration [1] of the same compound?
A: 4020 nM

Q: With `CC(=O)N[C@@H]1[C@@H](N)[C@@H](F)[C@](F)(C(=O)OCCCOC(=O)C(C)(C)C)O[C@H]1[C@H](O)[C@H](O)CO` as the compound, how does the concentration [2] read?
A: 1300 nM

Q: And the concentration [1]?
A: 3360 nM

Q: With `CC(=O)N[C@@H]1[C@@H](N)[C@@H](F)[C@](F)(C(=O)OCCCCCOC(=O)C(C)(C)C)O[C@H]1[C@H](O)[C@H](O)CO` as the compound, how does the concentration [2] read?
A: 1870 nM

Q: And the concentration [1]?
A: 3770 nM

Q: For `CC(=O)N[C@@H]1[C@@H](N)[C@@H](F)[C@](F)(C(=O)OCC(=O)N(C)C)O[C@H]1[C@H](O)[C@H](O)CO`, which concentration [2] is on record?
A: 5690 nM

Q: And the remaining at 0.25 h, 10 µM [4]?
A: 53%

Q: What about the remaining at 1 h, 10 µM [5] of the same compound?
A: 74%

Q: What about the remaining at 1 h, 10 µM [6] of the same compound?
A: 25%

Q: What about the remaining at 0.25 h, 10 µM [7] of the same compound?
A: 88%

Q: What about the concentration [1] of the same compound?
A: 4390 nM

Q: For `CC(=O)N[C@@H]1[C@@H](N)[C@@H](F)[C@](F)(C(=O)OCCC(=O)N(C)C)O[C@H]1[C@H](O)[C@H](O)CO`, which concentration [2] is on record?
A: 1400 nM

Q: And the concentration [1]?
A: 3750 nM

Q: For `CC(=O)N[C@@H]1[C@@H](N)[C@@H](F)[C@](F)(C(=O)OCCCOC(=O)c2ccc3ccccc3c2O)O[C@H]1[C@H](O)[C@H](O)CO`, which concentration [2] is on record?
A: 250 nM

Q: What about the concentration [1] of the same compound?
A: 300 nM
